The test system of data set [1] is HIV-1 recombinant strains resistant to NRTIs, NNRTIs, INSTIs, PIs or MIs. Type of data set: cell-based.
Data set [2] is described as follows: Cytotoxicity assay. Type of data set: cell-based. The conditions noted are these: human, MT-4 cells.
A short description of data set [3]: Cytotoxicity assay. The conditions noted are these: human, Huh-7 cells. Type of data set: cell-based.
Data set [4] is described as follows: Cytotoxicity assay. Type of data set: cell-based. The conditions noted are these: human, Gal-HepG2 cells.
The nature of data set [5]: Cytotoxicity assay. Type of data set: cell-based. The conditions noted are these: human, Gal-PC-3 cells.
Data set [6] is described as follows: Cytotoxicity assay. It counts as cell-based. The conditions noted are these: human, MRC-5 cells.
A short description of data set [7]: Cytotoxicity assay. Type of data set: cell-based. The conditions noted are these: human, primary human hepatocytes.
Data set [8] in a line: Cytotoxicity assay. It counts as cell-based. The conditions noted are these: human, quiescent PBMCs.
The nature of data set [9]: Cytotoxicity assay. The conditions noted are these: human, stimulated PBMCs. Type of data set: cell-based, human.
Data set [10] is described as follows: Cytotoxicity assay. The conditions noted are these: human, primary CD4+ T-lymphocytes. It counts as cell-based.
Data set [11] is described as follows: Cytotoxicity assay. The conditions noted are these: human, monocyte-derived macrophages. Type of data set: cell-based.

Values joined by “and” are separate entries in the source; they are usually repeats but may differ in a detail not shown here. Equal values may be shown once.

On to `O=C1Nc2ccc(Cl)cc2[C@@](C#CC2CC2)(C(F)(F)F)O1` [EFV, efavirenz, reference compound], for which the Fold resistance in data set [1] is recorded as >22.5 (3).

In the case of `C=C(C)[C@@H]1CC[C@]2(C(=O)O)CC[C@]3(C)[C@H](CC[C@@H]4[C@@]5(C)CC[C@H](OC(=O)CC(C)(C)C(=O)O)C(C)(C)[C@@H]5CC[C@]43C)[C@@H]12` [BVM, bevirimat, reference compound], the Fold resistance in [1] is >67.5 (6) and >67.5 (7).

Broadly, the CC50 is the concentration that lowers cell viability or growth by half. Higher therefore signals better tolerance by the cells. In the case of `COc1ccc(C[C@H](N)C(=O)N[C@H]2[C@@H](O)[C@H](n3cnc4c(N(C)C)ncnc43)O[C@@H]2CO)cc1` [Puromycin, reference compound], the CC50 amounted to 0.2 ± 0.1 µM in data set [2]; 0.5 µM in data set [3]; 1 ± 1.7 µM in data set [4]; 0.4 µM in data set [5]; 0.3 µM in data set [6]; 1.6 ± 0.6 µM in data set [7]. The CC50 stood at 0.6 ± 1.5 µM in data set [8], 0.2 ± 0.1 µM in data set [9], 0.2 ± 0.1 µM in [10] and 4.5 ± 2.8 µM in [11].

Regarding `COc1cc2c(cc1Cc1cccc(Cl)c1F)c(=O)c(C(=O)O)cn2[C@H](CO)C(C)C` [EVG, elvitegravir, reference compound], the Fold resistance in data set [1] is >53.8 (3) and >52.9 (3).

These data come from paper PMC8188729 (Nature, 2020).
